In assay [1] the test system is CAL-27. Briefly: Antiproliferative activity against human CAL27 cells after 72 hrs by microplate reader based MTT assay. Conditions: CAL-27, 72 h. The class given is functional, cell-based. In general terms: Tetrazolium assays rely on reduction of a dye to a coloured formazan, in cell work by metabolically active cells.
Assay [2] is described as follows: Potentiation of cisplatin-induced cytotoxicity in human Cal27CisR cells assessed as fold reduction in cisplatin IC50 at 1 uM preincubated for 48 hrs followed by cisplatin addition and further incubation for 72 hrs by MTT assay relative to cisplatin alone. In kind it is functional.
The next assay relates to A2780. Briefly: Antiproliferative activity against human A2780 cells after 72 hrs by microplate reader based MTT assay. Conditions: A2780, 72 h. The class given is functional, cell-based.
The target in assay [3] is Histone deacetylase. Briefly: Inhibition of HDAC in human CAL27 cells using Boc-Lys(epsilon-Ac)-AMC as substrate preincubated for 18 hrs followed by substrate addition and further incubation for 3 hrs by microplate reader based fluorescence assay. The class given is cell-based.
The subject of assay [4] is CAL-27. Briefly: Potentiation of cisplatin-induced apoptosis in human CAL27 cells assessed as increase in accumulation at sub-G1 phase at 0.5 uM preincubated for 48 hrs followed by cisplatin addition and further incubation for 24 hrs by propidium iodide staining based flow cytometry relative to cisplatin alone. In kind it is functional.
The species entered for assay [5] is Homo sapiens. Briefly: Induction of apoptosis in human Cal27CisR cells assessed as accumulation at sub-G1 phase at 1 uM after 48 hrs by propidium iodide staining based flow cytometry. The class given is functional, cell-based. (In general: Flow cytometry measures light scatter and fluorescence of single cells or particles in a stream.)
The subject of assay [6] is CAL-27. The assay is described as follows: Potentiation of cisplatin-induced cytotoxicity in human CAL27 cells assessed as fold reduction in cisplatin IC50 at 0.5 uM preincubated for 48 hrs followed by cisplatin addition and further incubation for 72 hrs by MTT assay relative to cisplatin alone. The class given is functional.
The species named for assay [7] is Homo sapiens. The assay is described as follows: Induction of apoptosis in human Cal27CisR cells assessed as increase in caspase-3/7 activation at 1 uM after 48 hrs by CellEvent caspase 3/7 green detection reagent/Hoechst 33342 staining based arrayscan analysis. The class given is functional, cell-based.
For the next assay, the target named is Histone deacetylase 4 (Homo sapiens, UniProt P56524). The assay is described as follows: Inhibition of C-terminal His-tagged/N-terminal GST-tagged recombinant human HDAC4 (627 to 1084 residues) expressed in Baculovirus infected insect cells using Boc-Lys(TFa)-AMC as substrate preincubated for 5 mins followed by substrate addition and further incubation for 90 mins measured after 15 mins by microplate reader based fluorescence assay.
Chain of Histone deacetylase 4 (P56524 whole entry, the tested form may be a part): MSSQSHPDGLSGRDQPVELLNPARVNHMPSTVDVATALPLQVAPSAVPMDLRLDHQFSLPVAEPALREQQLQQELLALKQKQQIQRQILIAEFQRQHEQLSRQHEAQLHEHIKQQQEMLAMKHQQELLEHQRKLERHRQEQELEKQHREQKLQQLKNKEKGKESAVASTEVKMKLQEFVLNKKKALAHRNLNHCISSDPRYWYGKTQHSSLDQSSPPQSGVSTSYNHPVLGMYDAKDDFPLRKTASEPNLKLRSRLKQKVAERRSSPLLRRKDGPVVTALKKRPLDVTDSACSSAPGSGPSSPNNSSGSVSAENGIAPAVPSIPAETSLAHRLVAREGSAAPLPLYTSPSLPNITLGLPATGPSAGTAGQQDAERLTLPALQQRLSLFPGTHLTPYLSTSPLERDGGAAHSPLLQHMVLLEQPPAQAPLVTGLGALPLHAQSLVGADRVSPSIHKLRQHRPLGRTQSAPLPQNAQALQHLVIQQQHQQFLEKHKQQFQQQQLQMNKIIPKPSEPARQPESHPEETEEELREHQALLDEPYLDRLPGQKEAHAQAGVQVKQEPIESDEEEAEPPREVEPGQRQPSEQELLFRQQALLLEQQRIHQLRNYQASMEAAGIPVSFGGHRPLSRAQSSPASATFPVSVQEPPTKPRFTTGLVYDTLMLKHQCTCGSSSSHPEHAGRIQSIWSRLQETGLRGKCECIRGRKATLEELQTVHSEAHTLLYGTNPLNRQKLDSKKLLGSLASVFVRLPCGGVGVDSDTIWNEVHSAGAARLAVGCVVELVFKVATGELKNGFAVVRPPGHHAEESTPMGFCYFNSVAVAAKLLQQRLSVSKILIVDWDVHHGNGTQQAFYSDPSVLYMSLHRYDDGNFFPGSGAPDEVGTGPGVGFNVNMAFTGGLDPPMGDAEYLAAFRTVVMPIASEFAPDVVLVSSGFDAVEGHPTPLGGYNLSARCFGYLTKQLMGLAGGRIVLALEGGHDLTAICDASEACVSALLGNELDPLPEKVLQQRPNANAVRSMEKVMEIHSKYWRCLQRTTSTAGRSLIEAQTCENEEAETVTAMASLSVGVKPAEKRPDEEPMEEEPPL

Assay [8] relates to CAL-27. The assay is described as follows: Induction of apoptosis in human CAL27 cells assessed as caspase-3/7 activity at 0.5 uM after 48 hrs by CellEvent caspase 3/7 green detection reagent/Hoechst 33342 staining based arrayscan analysis. The class given is functional, cell-based.
In assay [9] the target is Histone deacetylase. Briefly: Inhibition of HDAC in human A2780 cells using Boc-Lys(epsilon-Ac)-AMC as substrate preincubated for 18 hrs followed by substrate addition and further incubation for 3 hrs by microplate reader based fluorescence assay. In kind it is cell-based.
The target in another assay is Histone deacetylase 2 (Homo sapiens, UniProt Q92769). Briefly: biochemical. In kind it is cell-based.
Chain of Histone deacetylase 2 (Q92769 whole entry): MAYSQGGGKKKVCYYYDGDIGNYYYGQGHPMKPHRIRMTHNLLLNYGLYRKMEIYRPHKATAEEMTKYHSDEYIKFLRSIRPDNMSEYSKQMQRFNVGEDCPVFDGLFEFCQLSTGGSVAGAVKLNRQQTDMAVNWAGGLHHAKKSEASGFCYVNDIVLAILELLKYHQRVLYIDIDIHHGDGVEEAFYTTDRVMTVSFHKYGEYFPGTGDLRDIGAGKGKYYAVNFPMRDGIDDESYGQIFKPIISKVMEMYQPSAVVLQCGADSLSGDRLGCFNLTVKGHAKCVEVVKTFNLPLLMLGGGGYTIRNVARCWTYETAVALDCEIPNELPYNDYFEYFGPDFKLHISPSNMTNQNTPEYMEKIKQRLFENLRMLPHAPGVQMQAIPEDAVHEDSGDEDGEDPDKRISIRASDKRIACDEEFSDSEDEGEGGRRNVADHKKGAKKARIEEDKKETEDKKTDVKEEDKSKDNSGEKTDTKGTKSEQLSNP
The species named for assay [10] is Homo sapiens. Briefly: Potentiation of cisplatin-induced apoptosis in human Cal27CisR cells assessed as increase in caspase-3/7 activation at 1 uM preincubated for 48 hrs followed by cisplatin addition and further incubation for 24 hrs by CellEvent caspase 3/7 green detection reagent/Hoechst 33342 staining based arrayscan analysis. In kind it is functional, cell-based.

Another assay deals with T1, Histone deacetylase 8 (Homo sapiens, UniProt Q9BY41).
T1 sequence (Q9BY41 whole entry): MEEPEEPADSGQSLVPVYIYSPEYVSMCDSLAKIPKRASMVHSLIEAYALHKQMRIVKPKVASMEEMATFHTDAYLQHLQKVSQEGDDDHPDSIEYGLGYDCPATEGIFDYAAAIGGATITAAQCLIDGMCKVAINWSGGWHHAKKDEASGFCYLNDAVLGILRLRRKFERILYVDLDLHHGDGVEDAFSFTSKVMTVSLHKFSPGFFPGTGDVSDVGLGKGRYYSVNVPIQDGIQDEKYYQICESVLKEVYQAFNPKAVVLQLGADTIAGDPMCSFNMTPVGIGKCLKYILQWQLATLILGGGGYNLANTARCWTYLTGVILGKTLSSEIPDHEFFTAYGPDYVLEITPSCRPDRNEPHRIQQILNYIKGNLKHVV
Briefly: Inhibition of C-terminal His-fusion tagged/N-terminal Strep-2 tagged recombinant human HDAC8 (1 to 377 residues) expressed in insect cells using Boc-Lys(TFa)-AMC as substrate preincubated for 5 mins followed by substrate addition and further incubation for 90 mins measured after 15 mins by microplate reader based fluorescence assay.

Assay [11] deals with CAL-27. Briefly: Potentiation of cisplatin-induced apoptosis in human CAL27 cells assessed as increase in caspase-3/7 activation at 0.5 uM preincubated for 48 hrs followed by cisplatin addition and further incubation for 24 hrs by CellEvent caspase 3/7 green detection reagent/Hoechst 33342 staining based arrayscan analysis. The class given is functional, cell-based.
For assay [12], the species on record is Homo sapiens. The assay is described as follows: Potentiation of cisplatin-induced apoptosis in human Cal27CisR cells assessed as caspase-3/7 activity at 1 uM preincubated for 48 hrs followed by cisplatin addition and further incubation for 24 hrs treated with 20 uM pan capsase inhibitor QVD for 30 mins prior to compound addition by CellEvent caspase 3/7 green detection reagent/Hoechst 33342 staining based arrayscan analysis. The class given is functional, cell-based.

Molecules are shown by their SMILES. Activity calls are given as the source filed them. The calls are words filed in the database; no cut-off is given here.

As usually defined, the IC50 is the concentration needed to halve the response being measured. As usually defined, the Ki is a dissociation constant, usually derived from enzyme kinetics or from competition with a known ligand. Turning to `COc1ccc(NC(=O)NOCc2ccc(/C=C/C(=O)NO)cc2)cc1`, the IC50 in the assay with CAL-27 [1] was 1.7 µM; in the assay with A2780 it was 1.15 µM; against Histone deacetylase [3] it was 0.49 µM; against Histone deacetylase [9], 0.57 µM. In addition, the “Ratio IC50” value is on record as 4.76 in assay [2] and 2.95 in the assay on CAL-27 [6]. For the same compound, the “fold change (FC)” value in the assay on CAL-27 [4] is reported as 3. For the same compound, the outcome in the assay filed under Homo sapiens [5], with CAL-27 [8] and in the assay filed under Homo sapiens [12] was inactive. Moreover, the result in the assay listed under Homo sapiens [7], in the assay filed under Homo sapiens [10] and in the assay with CAL-27 [11] was Active. In addition, the Ki was found to be 25.2 µM on Histone deacetylase 4, 0.15 µM at Histone deacetylase 2 and 4.21 µM on Histone deacetylase 8.
`O=C(/C=C/c1ccc(CONC(=O)c2ccc3ccccc3n2)cc1)NO`: the IC50 in the assay on CAL-27 [1] turned out to be 0.8 µM; in the assay with A2780, 0.79 µM; on Histone deacetylase [3], 0.27 µM; at Histone deacetylase [9], 1.54 µM. Further, the “Ratio IC50” value worked out at 6.86 in [2] and 5.69 in the assay on CAL-27 [6]. Also, the “fold change (FC)” value with CAL-27 [4] is given as 3. Besides, the result in the assay listed under Homo sapiens [5], in the assay with CAL-27 [8] and in the assay listed under Homo sapiens [12] was inactive. The result in the assay listed under Homo sapiens [7], in the assay listed under Homo sapiens [10] and with CAL-27 [11] was Active. Also, the Ki at Histone deacetylase 4 came to 9.54 µM; on Histone deacetylase 2 it was 0.07 µM; on Histone deacetylase 8 it was 4.7 µM.

These data come from ChEMBL document CHEMBL4396934, “Novel α,β-unsaturated hydroxamic acid derivatives overcome cisplatin resistance” (Bioorg Med Chem, 2019).
